According to patent US12539326B2, “Methods for treating Alzheimer's disease using semaglutide” (Novo Nordisk A/S, priority 2019, dated 2026):

Tests used:
[1] = tested on: Patients with type 2 diabetes at high risk for or with established cardiovascular disease; test: Dementia in pooled double-blind RCTs (LEADER, SUSTAIN-6, PIONEER 6), GLP-1 receptor agonist versus placebo; type: in vivo, human; conditions: each RCT, active arm vs. placebo; for Dementia SMQ GLP-1 Receptor Agonists no. of events: median follow-up 3.8 years (LEADER), 2.1 years (SUSTAIN-6), 1.3 years (PIONEER 6)
Experimental: Exposure to GLP-1 receptor agonist and subsequent diagnosis of dementia was assessed in data sources with long term treatment exposure including three pooled double-blind randomized controlled trials (RCTs) and a nationwide cohort of patients with diabetes. This was done with the aim of investigating whether use of GLP-1 receptor agonists reduces the onset of dementia in patients with diabetes.
A triangulation approach integrating study designs and data sources with different key sources of potential bias was employed to obtain a more reliable answer. First, data was pooled from three large RCTs with GLP-1 receptor agonists; liraglutide (LEADER; 9,340 patients), subcutaneous semaglutide (SUSTAIN-6; 3,297 patients), and oral semaglutide (PIONEER 6; 3,183 patients). All three trials were multicenter, double-blind, placebo-controlled cardiovascular outcomes trials. Patients with type 2 diabetes at high risk for or with established cardiovascular disease were randomly assigned in a 1:1 ratio, to receive placebo or liraglutide (LEADER), or semaglutide (SUSTAIN-6; PIONEER 6) in addition to standard of care. In these trials, the treatment for diabetes (excluding GLP-1 receptor agonists, dipeptidyl peptidase-4 inhibitors (DPP4 inhibitors), and pramlintide) was adjusted or added in both arms, at the investigator's discretion, as previously described. The formulation tested in LEADER was an aqueous composition comprising liraglutide, disodium phosphate dihydrate, propylene glycol, and phenol at pH 8.15. The formulation tested in SUSTAIN-6 was an aqueous composition comprising semaglutide, disodium phosphate dihydrate, propylene glycol, and phenol at pH 7.4. The formulation tested in PIONEER was a tablet comprising semaglutide and SNAC. […]
For the pooled RCTs, an intention-to-treat analysis was performed using Cox regression with treatment assignment as the only explanatory variable to determine the hazard ratio for developing dementia with GLP-1 receptor agonists versus placebo. […] The incidence of dementia with death as competing risk was calculated using the Aalen-Johansen estimator.

[2] = tested on: microglial inflammatory marker Iba1 in the hippocampus; test: LPS-induced neuroinflammation in mice, Iba1 immunohistochemistry of the hippocampus; type: in vivo, mouse; conditions: C57BL/6 mice, Day 28, LPS+semaglutide 30 nmol/kg s.c. once per day; mean, SEM 0.49%; LPS+vehicle 12.17%; p<0.01
From the text: LPS-induced neuroinflammation is used as a non-genetic model of Alzheimer's disease in rodents. LPS is an endotoxin from gram-negative bacteria that provides a persistent inflammatory stimulus activating brain immune cells (neuroimmune cells). Microglia are a brain immune cell type activated by LPS, and the degree of neuroinflammation can be assessed by the area of microglia in brain tissue as measured by the microglia-specific marker ionized calcium binding adaptor molecule 1 (Iba1).
Here, LPS-induced neuroinflammation in mice was used to assess the impact of semaglutide on attenuating brain inflammation in the hippocampus, a brain region involved in memory and learning which is deteriorated in Alzheimer's Disease.
The experiment was carried out using C57BL/6 mice at 8-10 weeks of age. […]
Immediately after termination, whole brains were collected for immunohistochemical (IHC) analyses of neuroinflammation markers. […] The primary antibody was detected using a linker secondary antibody followed by amplification using a polymeric HRP-linker antibody conjugate. […]
Quantitative assessment of Iba1 signal was performed to measure the area of microglia in the hippocampus of the tissue section. […] The quantitative estimates of IHC-positive staining were calculated as an area fraction (AF) of the total tissue area where: […]

SAMP8 mice [3] = test: Y-maze test (short-term memory) in SAMP8 mice; type: in vivo, mouse; conditions: SAMP8 mice at 16 weeks of age; 30 nmol/kg s.c. once a day; mean, SEM 1.6%; vehicle 42.8%; p<0.0001
From the text: Here, SAMP8 mice were utilized to characterize the impact of semaglutide treatment on memory deficits and cognitive decline. Two behavioural tests commonly used to assess cognitive deficits in rodents were employed to assay effects on short-term memory (Y-maze test) and long-term memory (step-through passive avoidance test). The Y-maze is test of short-term memory, assessing spatial working memory and exploratory behaviour by measuring spontaneous alternations, which is the frequency of entering a new arm of the maze rather than returning to one that was previously visited (described in methods). The step-through passive avoidance test measures associative long-term memory by assessing the learning of an association of an aversive stimulus to a particular context (described in methods). SAMP8 mice have measurable deficits in both tests as they age. […]
Testing in the Y-maze was performed at 8 weeks of age and 16 weeks of age, at approximately 15 and 71 days following treatment initiation respectively. […] The series of arm entries including possible returns into the same arm was monitored and alternation was defined as entries into all three arms on consecutive occasions. The number of maximum alternations was therefore the total number of arm entries minus two and the percentage of alternation was be calculated as (actual alternations/maximum alternations)×100.

SAMP8 mice [4] = test: Step-through passive avoidance test (long-term memory) in SAMP8 mice; type: in vivo, mouse; conditions: SAMP8 mice at 18 weeks of age, retention test, 30 nmol/kg s.c. once a day, mean
From the text: Here, SAMP8 mice were utilized to characterize the impact of semaglutide treatment on memory deficits and cognitive decline. Two behavioural tests commonly used to assess cognitive deficits in rodents were employed to assay effects on short-term memory (Y-maze test) and long-term memory (step-through passive avoidance test). The Y-maze is test of short-term memory, assessing spatial working memory and exploratory behaviour by measuring spontaneous alternations, which is the frequency of entering a new arm of the maze rather than returning to one that was previously visited (described in methods). The step-through passive avoidance test measures associative long-term memory by assessing the learning of an association of an aversive stimulus to a particular context (described in methods). SAMP8 mice have measurable deficits in both tests as they age.
The experiment was carried out using SAMP8 mice with the following treatment groups: SAMP8 vehicle treated (n=24) and SAMP8 semaglutide (30 nmol/kg) treated (n=11). […]
The step through passive avoidance performance was performed at 18 weeks of age. […] The step-through latency was recorded up to 300 s, defined as the time it took the mouse to enter the darkened compartment during the retention test. Escape latency was as recorded, defined as the time in the retention test to escape the darkened chamber following the application of a footshock.

“N-epsilon26-[2-(2-{2-[2-(2-{2-[(S)-4-Carboxy-4-(17-carboxyheptadecanoylamino)butyrylamino] ethoxy}ethoxy)acetylamino]ethoxy} ethoxy)acetyl][Aib8,Arg34]GLP-1-(7-37) [semaglutide]” was tested, and the “Dementia SMQ GLP-1 Receptor Agonists no. of events” value ([1]; listed as Semaglutide (oral)) was 0, the “Dementia SMQ GLP-1 Receptor Agonists no. of events” value ([1]; listed as Semaglutide (s.c)) was 3 and the “Dementia SMQ GLP-1 Receptor Agonists rate” value ([1]; unit not printed in table (b13 gives pooled rates per 1000 patient-years)) was 0.88. For the same substance, the “hippocampal Iba1 area (area fraction)” value [2] was 8.53%, the “percentage alternation behaviour in the Y-maze” value (SAMP8 mice [3]) was 79.1% and the escape latency (SAMP8 mice [4]; SEM 3.0 seconds, vehicle 88.8 seconds, p=0.01) was 19.0 s. It also gave a step-through latency (SAMP8 mice [4]; SEM 14.5 seconds, vehicle 109.8 seconds, p<0.0001) of 260.5 s.
